According to the kinase profiling compilation of Christmann-Franck et al. (2016):

Tests used:
Assay in all cases: radiometric filter-binding kinase assay, Kinase HotSpot
Conditions in all cases: compound 0.5 µM; ATP 10 µM
ACVR1 (human) = ACVR1 (human) (UniProt Q04771)
ADRBK1 (human) = ADRBK1 (human) (UniProt P25098)
AKT3 (human) = AKT3 (human) (UniProt Q9Y243)
ALK (human) = ALK (human) (UniProt Q9UM73)
CAMK1 (human) = CAMK1 (human) (UniProt Q14012)
CAMK2B (human) = CAMK2B (human) (UniProt Q13554)
CAMKK1 (human) = CAMKK1 (human) (UniProt Q8N5S9)
CDK1 CCNB1 (human) = CDK1 CCNB1 (human) (UniProt P06493+P14635)
CDK3 CCNE1 (human) = CDK3 CCNE1 (human) (UniProt Q00526+P24864)
CDK7 CCNH MNAT1 (human) = CDK7 CCNH MNAT1 (human) (UniProt P50613+P51948+P51946)
CDK7 CCNH MNAT1 (human), sequence (P50613 whole entry, looked up): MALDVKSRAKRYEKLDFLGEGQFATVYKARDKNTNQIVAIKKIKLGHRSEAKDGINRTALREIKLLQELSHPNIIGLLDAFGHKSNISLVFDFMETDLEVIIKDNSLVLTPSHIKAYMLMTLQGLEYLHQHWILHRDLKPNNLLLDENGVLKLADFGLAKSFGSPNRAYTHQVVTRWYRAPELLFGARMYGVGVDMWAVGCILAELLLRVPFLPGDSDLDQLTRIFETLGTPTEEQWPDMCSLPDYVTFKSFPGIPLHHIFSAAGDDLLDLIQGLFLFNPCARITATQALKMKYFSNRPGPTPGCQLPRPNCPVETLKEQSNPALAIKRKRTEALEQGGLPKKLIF
CDK7 CCNH MNAT1 (human), sequence (P51946 whole entry, looked up): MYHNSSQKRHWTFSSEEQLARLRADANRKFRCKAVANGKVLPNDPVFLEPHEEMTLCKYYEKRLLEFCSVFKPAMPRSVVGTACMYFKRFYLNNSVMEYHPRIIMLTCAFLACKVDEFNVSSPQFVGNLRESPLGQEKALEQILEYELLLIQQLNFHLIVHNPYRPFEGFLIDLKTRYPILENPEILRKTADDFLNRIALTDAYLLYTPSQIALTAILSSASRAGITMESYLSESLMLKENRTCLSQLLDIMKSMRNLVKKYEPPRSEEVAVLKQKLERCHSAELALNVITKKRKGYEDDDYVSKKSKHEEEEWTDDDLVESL
CDK7 CCNH MNAT1 (human), sequence (P51948 whole entry, looked up): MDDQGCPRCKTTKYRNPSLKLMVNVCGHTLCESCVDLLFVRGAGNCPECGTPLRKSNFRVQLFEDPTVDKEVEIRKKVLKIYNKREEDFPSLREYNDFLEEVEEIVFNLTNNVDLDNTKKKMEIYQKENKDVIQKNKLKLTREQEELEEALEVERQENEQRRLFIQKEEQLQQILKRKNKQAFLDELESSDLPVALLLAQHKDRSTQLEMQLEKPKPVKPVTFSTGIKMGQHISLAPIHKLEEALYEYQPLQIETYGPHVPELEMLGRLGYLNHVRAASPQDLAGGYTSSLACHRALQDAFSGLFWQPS

CHUK (human) = CHUK (human) (UniProt O15111)
CHUK (human), sequence (O15111 whole entry, looked up): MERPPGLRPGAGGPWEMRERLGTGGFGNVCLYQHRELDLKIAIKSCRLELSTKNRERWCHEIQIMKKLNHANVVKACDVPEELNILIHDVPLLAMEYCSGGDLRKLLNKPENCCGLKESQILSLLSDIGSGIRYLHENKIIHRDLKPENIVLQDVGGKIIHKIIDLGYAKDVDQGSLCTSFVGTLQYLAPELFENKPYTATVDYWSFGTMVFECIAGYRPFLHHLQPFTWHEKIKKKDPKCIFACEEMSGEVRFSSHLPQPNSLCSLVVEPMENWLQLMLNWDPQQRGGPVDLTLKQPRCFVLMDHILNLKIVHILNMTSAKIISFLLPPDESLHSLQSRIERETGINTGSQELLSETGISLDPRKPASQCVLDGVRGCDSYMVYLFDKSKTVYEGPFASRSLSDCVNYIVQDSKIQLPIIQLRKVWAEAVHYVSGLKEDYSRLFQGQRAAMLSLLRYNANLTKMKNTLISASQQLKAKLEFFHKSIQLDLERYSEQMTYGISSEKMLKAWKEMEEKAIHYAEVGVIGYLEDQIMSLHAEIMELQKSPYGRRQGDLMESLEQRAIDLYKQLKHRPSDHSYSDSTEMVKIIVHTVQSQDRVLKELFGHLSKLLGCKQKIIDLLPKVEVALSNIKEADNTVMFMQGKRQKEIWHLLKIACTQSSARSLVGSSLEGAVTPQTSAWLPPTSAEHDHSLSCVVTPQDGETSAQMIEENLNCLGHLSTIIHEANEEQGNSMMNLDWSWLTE

DYRK1A (human) = DYRK1A (human) (UniProt Q13627)
EPHA7 (human) = EPHA7 (human) (UniProt Q15375)
EPHA7 (human), sequence (Q15375 whole entry, looked up): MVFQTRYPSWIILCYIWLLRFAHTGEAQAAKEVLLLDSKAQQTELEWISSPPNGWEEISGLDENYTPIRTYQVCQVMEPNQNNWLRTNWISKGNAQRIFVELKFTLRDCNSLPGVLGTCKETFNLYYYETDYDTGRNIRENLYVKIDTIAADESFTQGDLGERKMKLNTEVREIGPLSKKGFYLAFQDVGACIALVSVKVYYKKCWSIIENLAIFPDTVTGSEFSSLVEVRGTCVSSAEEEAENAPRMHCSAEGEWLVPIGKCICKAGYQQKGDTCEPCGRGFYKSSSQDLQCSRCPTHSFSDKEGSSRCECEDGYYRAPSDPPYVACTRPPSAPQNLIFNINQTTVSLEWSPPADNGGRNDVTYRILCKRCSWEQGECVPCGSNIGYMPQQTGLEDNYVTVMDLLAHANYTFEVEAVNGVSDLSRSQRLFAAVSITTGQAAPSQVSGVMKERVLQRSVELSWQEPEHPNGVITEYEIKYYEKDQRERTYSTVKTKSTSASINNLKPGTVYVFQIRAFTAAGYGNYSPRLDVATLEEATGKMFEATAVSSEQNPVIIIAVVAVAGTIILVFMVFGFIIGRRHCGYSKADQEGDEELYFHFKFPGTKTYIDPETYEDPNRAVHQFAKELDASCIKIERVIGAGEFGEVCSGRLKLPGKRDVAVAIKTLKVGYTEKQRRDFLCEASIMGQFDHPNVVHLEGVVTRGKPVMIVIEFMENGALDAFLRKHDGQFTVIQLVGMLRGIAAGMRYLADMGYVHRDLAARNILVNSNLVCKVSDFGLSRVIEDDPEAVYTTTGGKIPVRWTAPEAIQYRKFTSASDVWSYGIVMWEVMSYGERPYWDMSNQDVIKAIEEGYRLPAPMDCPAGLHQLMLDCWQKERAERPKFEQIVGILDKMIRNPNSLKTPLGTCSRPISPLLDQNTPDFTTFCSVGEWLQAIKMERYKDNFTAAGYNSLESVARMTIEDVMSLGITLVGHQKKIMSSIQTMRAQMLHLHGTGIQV

GRK6 (human) = GRK6 (human) (UniProt P43250)
HIPK3 (human) = HIPK3 (human) (UniProt Q9H422)
LIMK1 (human) = LIMK1 (human) (UniProt P53667)
MAP4K4 (human) = MAP4K4 (human) (UniProt O95819)
MELK (human) = MELK (human) (UniProt Q14680)
MINK1 (human) = MINK1 (human) (UniProt Q8N4C8)
MKNK2 (human) = MKNK2 (human) (UniProt Q9HBH9)
NEK2 (human) = NEK2 (human) (UniProt P51955)
NEK4 (human) = NEK4 (human) (UniProt P51957)
NTRK1 (human) = NTRK1 (human) (UniProt P04629)
PDGFRA (human) = PDGFRA (human) (UniProt P16234)
PDGFRB (human) = PDGFRB (human) (UniProt P09619)
PRKCA (human) = PRKCA (human) (UniProt P17252)
PRKCG (human) = PRKCG (human) (UniProt P05129)
PRKCI (human) = PRKCI (human) (UniProt P41743)
PRKCI (human), sequence (P41743 whole entry, looked up): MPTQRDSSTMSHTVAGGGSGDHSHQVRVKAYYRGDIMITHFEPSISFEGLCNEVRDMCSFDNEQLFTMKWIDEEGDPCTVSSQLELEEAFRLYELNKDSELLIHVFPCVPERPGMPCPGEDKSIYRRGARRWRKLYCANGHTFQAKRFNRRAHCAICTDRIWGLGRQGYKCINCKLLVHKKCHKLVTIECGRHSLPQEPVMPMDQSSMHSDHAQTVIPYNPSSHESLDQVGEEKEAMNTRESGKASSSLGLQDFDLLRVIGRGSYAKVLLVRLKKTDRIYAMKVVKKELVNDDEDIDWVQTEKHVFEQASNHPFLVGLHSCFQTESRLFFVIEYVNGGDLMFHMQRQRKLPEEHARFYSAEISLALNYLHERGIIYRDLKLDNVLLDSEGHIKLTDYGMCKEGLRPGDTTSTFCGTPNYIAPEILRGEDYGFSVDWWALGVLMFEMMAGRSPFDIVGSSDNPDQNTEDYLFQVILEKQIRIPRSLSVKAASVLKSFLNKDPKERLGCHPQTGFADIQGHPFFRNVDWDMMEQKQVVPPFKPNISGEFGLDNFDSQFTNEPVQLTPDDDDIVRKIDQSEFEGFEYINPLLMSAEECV

PRKCZ (human) = PRKCZ (human) (UniProt Q05513)
PRKD1 (human) = PRKD1 (human) (UniProt Q15139)
PRKD3 (human) = PRKD3 (human) (UniProt O94806)
SRMS (human) = SRMS (human) (UniProt Q9H3Y6)
SRPK1 (human) = SRPK1 (human) (UniProt Q96SB4)
STK25 (human) = STK25 (human) (UniProt O00506)
TGFBR1 (human) = TGFBR1 (human) (UniProt P36897)
WNK3 (human) = WNK3 (human) (UniProt Q9BYP7)
CAMK1D (human) = CAMK1D (human) (UniProt Q8IU85)
CDK2 CCNE1 (human) = CDK2 CCNE1 (human) (UniProt P24941+P24864)
CSNK1G1 (human) = CSNK1G1 (human) (UniProt Q9HCP0)
GRK5 (human) = GRK5 (human) (UniProt P34947)
LCK (human) = LCK (human) (UniProt P06239)

ADRBK1 (human), sequence (P25098 whole entry, looked up): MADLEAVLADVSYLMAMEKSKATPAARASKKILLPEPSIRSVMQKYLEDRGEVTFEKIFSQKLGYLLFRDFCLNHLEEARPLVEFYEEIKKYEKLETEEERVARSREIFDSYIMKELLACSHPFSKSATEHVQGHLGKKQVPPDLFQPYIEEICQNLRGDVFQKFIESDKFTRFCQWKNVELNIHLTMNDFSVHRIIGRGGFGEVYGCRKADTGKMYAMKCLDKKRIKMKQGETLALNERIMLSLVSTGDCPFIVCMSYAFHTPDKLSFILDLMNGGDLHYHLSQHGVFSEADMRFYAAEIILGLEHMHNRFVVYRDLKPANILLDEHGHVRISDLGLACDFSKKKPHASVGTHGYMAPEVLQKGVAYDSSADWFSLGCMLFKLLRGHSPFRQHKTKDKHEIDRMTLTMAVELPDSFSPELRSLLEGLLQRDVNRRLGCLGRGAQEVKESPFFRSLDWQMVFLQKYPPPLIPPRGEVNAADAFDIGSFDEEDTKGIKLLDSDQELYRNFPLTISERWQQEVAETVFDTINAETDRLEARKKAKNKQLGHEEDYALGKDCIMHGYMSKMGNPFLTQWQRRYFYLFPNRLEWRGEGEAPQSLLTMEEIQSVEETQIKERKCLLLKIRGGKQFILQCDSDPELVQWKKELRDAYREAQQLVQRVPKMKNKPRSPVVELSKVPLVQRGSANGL

Compound	residual activity (ACVR1 (human))	residual activity (ADRBK1 (human))	residual activity (AKT3 (human))	residual activity (ALK (human))	residual activity (CAMK1 (human))	residual activity (CAMK2B (human))	residual activity (CAMKK1 (human))	residual activity (CDK1 CCNB1 (human))	residual activity (CDK3 CCNE1 (human))	residual activity (CDK7 CCNH MNAT1 (human))	residual activity (CHUK (human))	residual activity (DYRK1A (human))	residual activity (EPHA7 (human))	residual activity (GRK6 (human))	residual activity (HIPK3 (human))	residual activity (LIMK1 (human))	residual activity (MAP4K4 (human))	residual activity (MELK (human))	residual activity (MINK1 (human))	residual activity (MKNK2 (human))	other results
CCN(CC)CCNC(=O)c1c(C)[nH]c(/C=C2\C(=O)Nc3ccc(F)cc32)c1C	121%	94.7%	71.7%	16.6%	75.2%	46.7%	52.1%	103%	91%	73.4%	92.4%	56.9%	50.8%	74.7%	47.3%	94.3%	12.4%	10.4%	10.5%	99.3%	residual activity (NEK2 (human)): 106%; residual activity (NEK4 (human)): 94.1%; residual activity (NTRK1 (human)): 11.5%; residual activity (PDGFRA (human)): 10.9%; residual activity (PDGFRB (human)): 17.6%; residual activity (PRKCA (human)): 79.9%; residual activity (PRKCG (human)): 83.8%; residual activity (PRKCI (human)): 103%; residual activity (PRKCZ (human)): 91.7%; residual activity (PRKD1 (human)): 20%; residual activity (PRKD3 (human)): 16.6%; residual activity (SRMS (human)): 99.6%; residual activity (SRPK1 (human)): 97%; residual activity (STK25 (human)): 76.1%; residual activity (TGFBR1 (human)): 101%; residual activity (WNK3 (human)): 94.3%
c1ccc(-c2n[nH]c3c2oc2ccccc23)cc1	99.4%	104%	84.4%	95.9%	85.2%	101%	97%	87.7%	90%	101%	92.3%	114%	104%	102%	80.7%	71.2%	36.1%	77%	81.4%	70%	residual activity (CAMK1D (human)): 92.9%; residual activity (CDK2 CCNE1 (human)): 95.6%; residual activity (CSNK1G1 (human)): 91.6%; residual activity (GRK5 (human)): 123%; residual activity (LCK (human)): 99.3%; residual activity (NEK2 (human)): 99.8%; residual activity (NEK4 (human)): 92.9%; residual activity (NTRK1 (human)): 85.6%; residual activity (PDGFRA (human)): 73.7%; residual activity (PRKCA (human)): 92.9%; residual activity (PRKCG (human)): 99.9%; residual activity (PRKCI (human)): 85.9%; residual activity (PRKCZ (human)): 87.1%; residual activity (PRKD1 (human)): 79.2%; residual activity (PRKD3 (human)): 99.6%; residual activity (SRMS (human)): 99.5%; residual activity (SRPK1 (human)): 113%; residual activity (STK25 (human)): 89.6%; residual activity (TGFBR1 (human)): 94.9%; residual activity (WNK3 (human)): 91.5%
CNC(=O)c1cc(Oc2ccc(NC(=O)Nc3ccc(Cl)c(C(F)(F)F)c3)cc2)ccn1	98.7%	112%	94.2%	97.3%	106%	96.7%	103%	98.5%	96.5%	102%	99.8%	103%	80.7%	107%	85.7%	76.8%	96.1%	93.6%	108%	70.3%	residual activity (CAMK1D (human)): 103%; residual activity (CDK2 CCNE1 (human)): 98.2%; residual activity (CSNK1G1 (human)): 102%; residual activity (GRK5 (human)): 97.8%; residual activity (NEK2 (human)): 99.3%; residual activity (NEK4 (human)): 99.5%; residual activity (NTRK1 (human)): 76.1%; residual activity (PDGFRA (human)): 7.77%; residual activity (PDGFRB (human)): 12%; residual activity (PRKCA (human)): 96.8%; residual activity (PRKCG (human)): 94.7%; residual activity (PRKCI (human)): 89.9%; residual activity (PRKCZ (human)): 94.5%; residual activity (PRKD1 (human)): 99.7%; residual activity (PRKD3 (human)): 94%; residual activity (SRMS (human)): 107%; residual activity (SRPK1 (human)): 98.6%; residual activity (STK25 (human)): 104%; residual activity (TGFBR1 (human)): 94.1%; residual activity (WNK3 (human)): 99.2%
